We go through eight compounds from publication PMC5473928 (Scientific Reports, 2017).

Read-outs that look alike come from different tables or passages of the source. Where only a bound is given, the exact number is not on record here.

As usually defined, the Kd is the free concentration of one partner at which half of the binding sites on the other are occupied at equilibrium, for simple one-to-one binding. What is called koff is the first-order rate constant of dissociation. What is called kinact is the rate constant of inactivation at saturating inhibitor.

The target in one test is T1, KRasWT (Homo sapiens, UniProt P01116).
T1 construct: His6 (cleaved yes); made in house
Description: Stopped-flow competition binding of nucleotides to nucleotide-free KRas (mantdGDP or mantdGDPβMe fluorescence, global fit). The conditions noted are these: for koff: read-out: dissociation rate constant (koff). As to the method: A method which leads to estimates of the kinetic parameters as well as the affinity involves stopped-flow measurements of association of fluorescent nucleotides with nucleotide-free Ras followed by competiton between fluorescent and non-fluorescent nucleotides to obtain the parameters for the non-labelled substances.
(§1) All stopped-flow experiments were performed in a SX-20 stopped-flow apparatus (Applied Photophysics) at 25 °C in a buffer consisting of 20 mM Hepes pH 7.5, 100 mM NaCl, 1 mM TCEP, 2 mM MgCl2 (excitation with 360 nm LED, emission detection with a 420 nm cut-off filter).

Another test concerns HRasF28L. The arrangement: method as in PMID 1894650. The conditions noted are these: HRasF28L mutant; cited from earlier work.
Another test deals with KRas. Also noted: method as in PMID 8419371. Particulars: Mg^2+ reduced from a physiologically realistic value to 0.1 µM; cited from earlier work.
Another test deals with HRas. Also noted: method as in PMID 2200519. The conditions noted are these: cited from earlier work; for dissociation rate constant (koff): value reported for HRas; for Kd: weakly bound competitor of mantdGDP.
In test [1] the target is T2, KRasG12C (Homo sapiens, UniProt P01116, C118S/C51S/C80L/G12C).
T2 construct: KRas1–169 G12C C51S C80L C118S were cloned into a modified pET19 expression vector; His6 (cleaved yes); made in house
Description: Stopped-flow competition binding and covalent reaction with nucleotide-free KRasG12C (mantdGDPβMe fluorescence, global fit). Particulars: 25 °C. As to the method:
as §1

The target in test [2] is T2, KRasG12C. Put plainly: ESI-MS monitoring of the covalent reaction with KRasG12C. The class given is biochemical. As to the method: An independent confirmation of the rapid covalent reaction of SML-8-73-1 with KRasG12C was obtained by mixing the compound with the nucleotide-free protein followed by ESI-MS.
In order to test the predictions arising from the simulations in the case of SML-8-73-1, we have performed a number of semi-quantitative experiments using mass spectrometric analysis.
To allow comparison with published work, further experiments were performed at 37°. In the first experiment, the conditions described by Hunter et al.[21] were duplicated (15 µM KRasG12C, 150 µM SML-8-73-1, no added Mg^2+ ions).
In this case, there was very rapid generation of the covalent adduct, so that the first time of measurement (designated as time zero in the figure, but in practice after ca. 10 min), the reaction was practically complete (Fig. S3F).
The covalent reaction of SML-8-73-1 with KRasG12C was monitored by mass spectrometry. 200 µM SML-8-73-1 was added to the nucleotide-free protein (50 µM), 5 mM dithioerythritol (DTE) was added after ~20 s and the extent of modification monitored by ESI-MS.
For the measurements described in Fig. S3, KRasG12C and SML 8-73-1 were incubated in 20 mM HEPES pH 7.5 and 50 mM NaCl. The conditions are as mentioned in the figure. For each time point, the reaction was stopped by the addition of DTT (to 5 mM final concentration) and acetonitrile (to 25%).

Test [3] has as its target T2, KRasG12C. Particulars: cited from earlier work.
The next test addresses T3, KRas / SOS564–1049 (Homo sapiens, UniProt P01116).
T3 construct: His6 (cleaved yes); made in house
Put plainly: SOS catalyzed nucleotide exchange on KRas:nucleotide complexes, stopped-flow, excess SOS (Fig. 3A). In kind it is biochemical. Particulars: not reached in SOS range used; from numerical simulations. As to the method:
as §1

[4] abbreviates: KRasWT, 25 °C, global fit of stopped-flow competition, read-out: association rate constant (kon).
Where [5] appears, read: read-out: association rate constant (kon).
Where [6] appears, read: KRasWT, 25 °C, global fit of stopped-flow competition.

Consider `Nc1nc2c(ncn2C2OC(COP(=O)(O)OP(=O)(O)O)C(O)C2O)c(=O)[nH]1` (stereo not drawn) [GDP], for which the kon at KRasWT (setting [4]) came out at 8.2e+06 M⁻¹ s⁻¹; at KRasWT (read-out: association rate constant (binding scheme, Fig. 1A)) it was 8.7e+06 ± 40000 M⁻¹ s⁻¹. Further, the Kd at KRasWT (read-out: Kd) came out at 0.02 nM. Moreover, the “factor of increase of the rate constant for GDP dissociation” value in the test with HRasF28L was “ca. 140”. In addition, in the test with KRas, the “factor of acceleration of GDP release” value is on record as “more than 200”. The “dissociation rate constant (koff)” value with HRas is “ca. 10^−4 s^−1”.
With `COP(=O)(O)OP(=O)(O)OCC1OC(n2cnc3c(=O)[nH]c(N)nc32)C(O)C1O` (stereo not drawn) [GDPβMe, β-methyl ester of GDP], at KRasWT, binding was characterised by a dissociation constant (Kd) of 130 nM and the off-rate (koff) came to 0.8 s⁻¹. Also, the “inhibition of mantdGDP binding at equilibrium” value on KRasWT (3x excess of GDPβMe over mantdGDP) was “no significant inhibition”. On KRasWT (from similar kon and faster koff), the “affinity of KRas relative to GDP” value is given as “ca. 4 orders of magnitude lower”. Further, the “release rate relative to GDP” value on KRasWT (koff of GDPβMe vs koff of GDP) was “approximately 10^4 times faster”. Further, the kon on KRasWT (setting [5]) came out at 5.8e+06 M⁻¹ s⁻¹.
In the case of `Nc1nc2c(ncn2[C@@H]2O[C@H](COP(=O)(O)O)[C@@H](O)[C@H]2O)c(=O)[nH]1` [GMP], the Kd at HRas is 29000 nM.
As for `Nc1nc2c(ncn2[C@@H]2O[C@H](COP(=O)(O)OP(=O)(O)OCCNC(=O)CCl)[C@@H](O)[C@H]2O)c(=O)[nH]1` [SML-8-73-1], the kon at KRasWT (setting [4]) came out at 7.4e+06 M⁻¹ s⁻¹; at KRasG12C [1] (setting [5]) it was 4.1e+06 M⁻¹ s⁻¹. The figures for the koff at KRasWT (setting [6]) and at KRasG12C [1] (read-out: dissociation rate constant (koff)) were 1 s⁻¹ and 0.9 s⁻¹, respectively. Besides, the maximal inactivation rate constant (kinact) on KRasG12C [1] (read-out: rate constant for the covalent reaction (kinact)) was determined as 0.1 s⁻¹. Besides, the “period over which covalent modification occurred” value on KRasG12C [2] (200 µM SML-8-73-1, 50 µM nucleotide-free KRasG12C, DTE quench) is on record as “tens of seconds to minutes”. Besides, the “extent of covalent reaction after 52 h” value on KRasG12C [2] (25°, simulation conditions (20 µM inhibitor, 400 µM GTP, 40 µM GDP) but 10 µM KRas, Fig. S3A) is listed as “almost no reaction”. Besides, the “time to 50% reaction” value at KRasG12C [2] (37°, 15 µM KRasG12C, 150 µM SML-8-73-1, no added Mg^2+ (ca. 20 µM free), Fig. S3B) was in the range of 1 to 2 h. In addition, the “extent of covalent reaction after 51 h” value on KRasG12C [2] (37°, 1.5 mM each of GTP and GTP and 3 mM Mg^2+, Fig. S3E) is listed as “a few percent”. In addition, the “rate constant for the covalent reaction” value at KRasG12C [3] is 0.014 s⁻¹. For the same compound, the dissociation constant Kd at KRasG12C [3] (read-out: Kd for the reversible binding step) was 9 nM.
For `Nc1nc2c(ncn2COCCOP(=O)(O)OP(=O)(O)OP(=O)(O)O)c(=O)[nH]1` [acyclovir triphosphate], the kon on KRasWT (setting [4]) was 1.29e+07 M⁻¹ s⁻¹. Moreover, the off-rate (koff) on KRasWT (setting [6]) came out at 0.1 s⁻¹. The Kd on KRasWT (read-out: Kd) came out at 8.5 nM.
Turning to `Nc1nc2c(ncn2[C@@H]2O[C@H](CO)[C@@H](O)[C@H]2O)c(=O)[nH]1` [guanosine], the Kd at HRas was 153000 nM.
As to `CNc1ccccc1C(=O)O[C@H]1C[C@H](n2cnc3c(=O)[nH]c(N)nc32)O[C@@H]1COP(=O)(O)OP(=O)(O)O` [mantdGDP], the “association rate constant (kon)” value on KRasWT (setting [6]) was 3.2e+06 M⁻¹ s⁻¹. Further, the “dissociation rate constant (koff)” value in the test on HRas is “ca. 10^−4 s^−1”.
Take `CNc1ccccc1C(=O)O[C@H]1C[C@H](n2cnc3c(=O)[nH]c(N)nc32)O[C@@H]1COP(=O)(O)OP(=O)(O)OC` [mantdGDPβMe]: at KRasWT (setting [6]), the “association rate constant (kon)” value worked out at 4.9e+06 M⁻¹ s⁻¹ and the “dissociation rate constant (koff)” value amounted to 0.4 s⁻¹. The “maximal (limiting) rate constant for nucleotide release by SOS” value at KRas / SOS564–1049 was greater than 5 s⁻¹.
